Results published in ChEMBL document CHEMBL1136145, “Antitumor activity of unsaturated fatty acid esters of 4'-demethyldeoxypodophyllotoxin” (Bioorg Med Chem Lett, 2003).
≈ marks a conversion by molar mass, not a printed value.

Experiments:
[1] = Inhibition of DNA topoisomerase II in S180 (murine sarcoma) cells.; assay type: functional, cell-based, Mus musculus; conditions: ccrf s-180
[2] = test system: CCRF S-180; test: Cytotoxicity in S-180 (murine sarcoma) cell was determined.; assay type: functional, cell-based; conditions: Mus musculus
[3] = test system: SK-MEL-2; test: Cytotoxicity in SK-MEL-2 (human melanoma) cell line.; assay type: functional; conditions: read-out: ED50 (the source's name)
[4] = target: Tubulin; test: Inhibition of tubulin polymerization in S180 (murine sarcoma) cells.; assay type: functional, cell-based; conditions: ccrf s-180
[5] = test system: A549; test: Cytotoxicity in A549 (human carcinoma) cell line.; assay type: functional; conditions: read-out: ED50 (the source's name)

Question: With `COc1cc([C@@H]2c3cc4c(cc3C[C@H]3COC(=O)[C@@H]32)OCO4)cc(OC)c1O` [4'-DEMETHYLDEOXYPODOPHYLLOTOXIN] as the compound, how does the IC50 [1] read?
Answer: 24500 nM

Question: And the IC50 [2]?
Answer: 30 nM

Question: And the EC50 [3]?
Answer: 0.015 µg/mL (≈ 0.039 µM)

Question: What about the IC50 [4] of the same compound?
Answer: 2000 nM

Question: What about the EC50 [5] of the same compound?
Answer: 0.023 µg/mL (≈ 0.0598 µM)

Question: Which results are given for `CCCC/C=C\C/C=C\C/C=C\C/C=C\CCCC(=O)Oc1c(OC)cc([C@@H]2c3cc4c(cc3C[C@H]3COC(=O)[C@@H]32)OCO4)cc1OC`?
Answer: EC50 [3]: 0.184 µg/mL (≈ 0.28 µM); EC50 [5]: 0.91 µg/mL (≈ 1.39 µM)

Question: What does the source list for `CCCCCCCC/C=C\CCCCCCCC(=O)Oc1c(OC)cc([C@@H]2c3cc4c(cc3C[C@H]3COC(=O)[C@@H]32)OCO4)cc1OC`?
Answer: EC50 [3]: 0.159 µg/mL (≈ 0.245 µM); EC50 [5]: 0.179 µg/mL (≈ 0.276 µM)

Question: Which results are given for `CCCCCCCC/C=C/CCCCCCCC(=O)Oc1c(OC)cc([C@@H]2c3cc4c(cc3C[C@H]3COC(=O)[C@@H]32)OCO4)cc1OC`?
Answer: EC50 [3]: 0.55 µg/mL (≈ 0.848 µM); EC50 [5]: 0.367 µg/mL (≈ 0.566 µM)

Question: With `CCCC/C=C\C/C=C\CCCCCCCCCC(=O)Oc1c(OC)cc([C@@H]2c3cc4c(cc3C[C@H]3COC(=O)[C@@H]32)OCO4)cc1OC` as the compound, how does the EC50 [3] read?
Answer: 0.347 µg/mL (≈ 0.525 µM)

Question: What about the EC50 [5] of the same compound?
Answer: 0.87 µg/mL (≈ 1.32 µM)

Question: Which results are given for `CCCCC/C=C/C/C=C/CCCCCCCC(=O)Oc1c(OC)cc([C@@H]2c3cc4c(cc3C[C@H]3COC(=O)[C@@H]32)OCO4)cc1OC`?
Answer: EC50 [3]: 0.11 µg/mL (≈ 0.17 µM); EC50 [5]: 0.259 µg/mL (≈ 0.4 µM)

Question: Which EC50 [3] does the source give for `CCCCCC/C=C\CCCCCCCC(=O)Oc1c(OC)cc([C@@H]2c3cc4c(cc3C[C@H]3COC(=O)[C@@H]32)OCO4)cc1OC` here?
Answer: 0.065 µg/mL (≈ 0.105 µM)

Question: And the EC50 [5]?
Answer: 0.733 µg/mL (≈ 1.18 µM)

Question: With `CCCCCCCCCCCCCCCCCC(=O)Oc1c(OC)cc([C@@H]2c3cc4c(cc3C[C@H]3COC(=O)[C@@H]32)OCO4)cc1OC` as the compound, how does the EC50 [3] read?
Answer: > 5 µg/mL

Question: What about the EC50 [5] of the same compound?
Answer: 2.67 µg/mL (≈ 4.1 µM)

Question: Which results are given for `CCCCCCCC/C=C\CCCCCCCCCC(=O)Oc1c(OC)cc([C@@H]2c3cc4c(cc3C[C@H]3COC(=O)[C@@H]32)OCO4)cc1OC`?
Answer: EC50 [3]: > 5 µg/mL; EC50 [5]: > 5 µg/mL

Question: With `CCCCCCCCCCCCCCCC(=O)Oc1c(OC)cc([C@@H]2c3cc4c(cc3C[C@H]3COC(=O)[C@@H]32)OCO4)cc1OC` as the compound, how does the EC50 [3] read?
Answer: 0.29 µg/mL (≈ 0.466 µM)

Question: What about the EC50 [5] of the same compound?
Answer: 0.268 µg/mL (≈ 0.43 µM)

Question: Which results are given for `CCCCCC/C=C\CCCCCCCCCC(=O)Oc1c(OC)cc([C@@H]2c3cc4c(cc3C[C@H]3COC(=O)[C@@H]32)OCO4)cc1OC`?
Answer: EC50 [3]: 0.057 µg/mL (≈ 0.0878 µM); EC50 [5]: 0.335 µg/mL (≈ 0.516 µM)

Question: With `CCCCCCC/C=C/CCCCCCCCCC(=O)Oc1c(OC)cc([C@@H]2c3cc4c(cc3C[C@H]3COC(=O)[C@@H]32)OCO4)cc1OC` as the compound, how does the EC50 [3] read?
Answer: 1.13 µg/mL (≈ 1.7 µM)

Question: What about the EC50 [5] of the same compound?
Answer: 1.66 µg/mL (≈ 2.5 µM)

Question: Which EC50 [3] does the source give for `CCCCC/C=C\C/C=C\CCCCCCCC(=O)Oc1c(OC)cc([C@@H]2c3cc4c(cc3C[C@H]3COC(=O)[C@@H]32)OCO4)cc1OC` here?
Answer: 0.03 µg/mL (≈ 0.0464 µM)

Question: And the EC50 [5]?
Answer: 0.09 µg/mL (≈ 0.139 µM)

Question: Which EC50 [3] does the source give for `COc1cc([C@@H]2c3cc4c(cc3C[C@H]3COC(=O)[C@@H]32)OCO4)cc(OC)c1OC` [DESOXYPODOPHYLLOTOXIN] here?
Answer: 0.009 µg/mL (≈ 0.0226 µM)

Question: What about the EC50 [5] of the same compound?
Answer: 0.012 µg/mL (≈ 0.0301 µM)

Question: What does the source list for `CCCCCCCC/C=C\CCCCCCCCCCCC(=O)Oc1c(OC)cc([C@@H]2c3cc4c(cc3C[C@H]3COC(=O)[C@@H]32)OCO4)cc1OC`?
Answer: EC50 [3]: 0.561 µg/mL (≈ 0.796 µM); EC50 [5]: 2.71 µg/mL (≈ 3.84 µM)

Question: Which results are given for `CC/C=C\C/C=C\C/C=C\C/C=C\C/C=C\C/C=C\CCC(=O)Oc1c(OC)cc([C@@H]2c3cc4c(cc3C[C@H]3COC(=O)[C@@H]32)OCO4)cc1OC`?
Answer: EC50 [3]: 0.035 µg/mL (≈ 0.0504 µM); EC50 [5]: 0.119 µg/mL (≈ 0.171 µM)

Question: With `CC/C=C\C/C=C\C/C=C\CCCCCCCC(=O)Oc1c(OC)cc([C@@H]2c3cc4c(cc3C[C@H]3COC(=O)[C@@H]32)OCO4)cc1OC` as the compound, how does the EC50 [3] read?
Answer: 0.048 µg/mL (≈ 0.0744 µM)

Question: And the EC50 [5]?
Answer: 0.084 µg/mL (≈ 0.13 µM)

Question: Which EC50 [3] does the source give for `CCCCC/C=C\C/C=C\C/C=C\CCCCC(=O)Oc1c(OC)cc([C@@H]2c3cc4c(cc3C[C@H]3COC(=O)[C@@H]32)OCO4)cc1OC` here?
Answer: 0.041 µg/mL (≈ 0.0636 µM)

Question: What about the EC50 [5] of the same compound?
Answer: 0.085 µg/mL (≈ 0.132 µM)

Question: For `CCCCCCCCCCCCCCCCCCCCCC(=O)Oc1c(OC)cc([C@@H]2c3cc4c(cc3C[C@H]3COC(=O)[C@@H]32)OCO4)cc1OC`, which EC50 [3] is on record?
Answer: > 5 µg/mL

Question: And the EC50 [5]?
Answer: > 5 µg/mL

Question: For `CCCCCC/C=C/CCCCCCCCCC(=O)Oc1c(OC)cc([C@@H]2c3cc4c(cc3C[C@H]3COC(=O)[C@@H]32)OCO4)cc1OC`, which EC50 [3] is on record?
Answer: 0.253 µg/mL (≈ 0.39 µM)

Question: What about the EC50 [5] of the same compound?
Answer: 1.01 µg/mL (≈ 1.56 µM)

Question: With `CCCCCCCCCCCCCCCCCCCC(=O)Oc1c(OC)cc([C@@H]2c3cc4c(cc3C[C@H]3COC(=O)[C@@H]32)OCO4)cc1OC` as the compound, how does the EC50 [3] read?
Answer: > 5 µg/mL

Question: And the EC50 [5]?
Answer: > 5 µg/mL
